Experiments:
[1] = molecular target: T1, EP4 (Homo sapiens (Human), UniProt P35408); experiment: cAMP assay, EP4; type: cell-based; settings: HEK-EBNA cells expressing EP4
Method: A 384-well drug plate was prepared to contain 6 test compounds, PGE2 and cAMP in 16 serial dilutions in triplicate, using a Biomek station. HEK-EBNA cells expressing a target PG receptor subtype (EP2 or EP4) were suspended in a stimulation buffer (HBSS, 0.1% BSA, 0.5 mM IBMX and 5 mM HEPES, pH 7.4) in a density of 10^4 cells/5 microliters. The reaction was initiated by mixing 5 microliters drug dilutions with 5 microliters of HEK-EBNA cells in a well, carried out for 30 min at room temperature, and followed by the addition of 5 microliters anti-cAMP acceptor beads in the control buffer with Tween-20 (25 mM NaCl, 0.03% Tween-20, 5 mM HEPES, pH 7.4). After 30 min in the dark at room temperature, the mixtures were incubated with 15 microliters biotinylated-cAMP/streptavidin donor beads in Lysis/Detection buffer (0.1% BSA, 0.3% Tween-20 and 5 mM HEPES, pH 7.4) for 45 min at room temperature. Fluorescence changes were read using a Fusion-alpha microplate reader.

[2] = molecular target: T2, EP2 (Homo sapiens (Human), UniProt P43116); experiment: Competition binding ([3H]PGE2), EP2; settings: HEK 293 cells stably expressing human EP2 receptors, [3H]PGE2 10 nM
T2 sequence (P43116 whole entry): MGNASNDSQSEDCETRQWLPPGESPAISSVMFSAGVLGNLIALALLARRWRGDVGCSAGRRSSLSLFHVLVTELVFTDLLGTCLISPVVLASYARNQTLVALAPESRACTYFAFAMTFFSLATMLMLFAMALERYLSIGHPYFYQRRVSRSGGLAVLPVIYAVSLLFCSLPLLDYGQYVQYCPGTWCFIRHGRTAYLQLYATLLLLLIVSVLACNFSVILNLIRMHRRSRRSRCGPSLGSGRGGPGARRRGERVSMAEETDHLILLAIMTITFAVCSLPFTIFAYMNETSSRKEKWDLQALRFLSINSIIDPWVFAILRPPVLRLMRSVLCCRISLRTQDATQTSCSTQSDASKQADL
Method: Competition binding experiments were performed in a medium containing Hank's balanced salt solution, HEPES 20 mM, pH 7.3, membranes (˜60 μg protein) or 2×10^5 cells from HEK 293 cells stably expressing human EP2 receptors, [^3H]PGE2 (10 nM) and various concentrations of test compounds in a total volume of 300 μl. Reaction mixtures were incubated at 23° C. for 60 min, and were filtered over Whatman GF/B filters under vacuum. Filters were washed three times with 5 ml ice-cold buffer containing 50 mM Tris/HCl (pH 7.3). Non-specific binding was estimated in the presence of excess unlabeled PGE2 (10 μM). Binding data fitted to the binding model for a single class of binding sites, using nonlinear regression analysis. IC50 values thus obtained were converted to Ki using the equation of Ki=(IC50/(1+[L]/KD) where [L] represents PGE2 concentration (10 nM) and KD the dissociation constant for [^3H]PGE2 at human EP2 receptors (40 nM).

[3] = molecular target: T1, EP4; experiment: Competition binding, EP4
[4] = molecular target: T2, EP2; experiment: cAMP assay, EP2; type: cell-based; settings: HEK-EBNA cells expressing EP2
[5] = molecular target: hTP (Homo sapiens (Human), UniProt P21731); experiment: FLIPR calcium signal, hTP; type: cell-based; settings: HEK-293(EBNA) cells expressing hTP
hTP, sequence (P21731 whole entry): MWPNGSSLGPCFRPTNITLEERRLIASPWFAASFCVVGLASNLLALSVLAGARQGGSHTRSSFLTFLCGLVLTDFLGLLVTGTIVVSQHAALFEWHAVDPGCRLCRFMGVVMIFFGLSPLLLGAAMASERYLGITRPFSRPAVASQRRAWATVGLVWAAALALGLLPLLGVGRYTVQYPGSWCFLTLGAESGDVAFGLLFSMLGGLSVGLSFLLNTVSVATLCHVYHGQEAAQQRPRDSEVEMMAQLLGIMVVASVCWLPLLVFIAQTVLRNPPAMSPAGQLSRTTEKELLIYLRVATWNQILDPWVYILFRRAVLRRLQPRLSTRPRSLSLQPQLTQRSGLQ
Method: (§1) HEK-293(EBNA) cells, stably expressing one type or subtype of recombinant human prostaglandin receptors (prostaglandin receptors expressed: hDP/Gqs5; hEP1; hEP2/Gqs5: hEP3A/Gqi5; hEP4/Gqs5; hFP; hIP; hTP), were cultured in 100 mm culture dishes in high-glucose DMEM medium containing 10% fetal bovine serum, 2 mM 1-glutamine, 250 μg/ml geneticin (G418) and 200 microgram/mL hygromycin B as selection markers, and 100 units/ml penicillin G, 100 microgram/mL streptomycin and 0.25 microgram/mL amphotericin B.
(§2) Cells were seeded at a density of 5×10^4 cells per well in Biocoat® Poly-D-lysine-coated black-wall, clear-bottom 96-well plates (Becton-Dickinson) and allowed to attach overnight in an incubator at 37° C. Cells were then washed two times with HBSS-HEPES buffer (Hanks Balanced Salt Solution without bicarbonate and phenol red, 20 mM HEPES, pH 7.4) using a Denley Cellwash plate washer (Labsystems). […]
(§3) Cells were excited with an Argon laser at 488 nm, and emission was measured through a 510-570 nm bandwidth emission filter (FLIPR™, Molecular Devices, Sunnyvale, Calif.). […] The peak increase in fluorescence intensity was recorded for each well. […] The peak fluorescence change in each drug-containing well was then expressed relative to the controls. […]

[6] = molecular target: hDP (Homo sapiens (Human), UniProt Q13258); experiment: FLIPR calcium signal, hDP; type: cell-based; settings: HEK-293(EBNA) cells expressing hDP/Gqs5
hDP, sequence (Q13258 whole entry): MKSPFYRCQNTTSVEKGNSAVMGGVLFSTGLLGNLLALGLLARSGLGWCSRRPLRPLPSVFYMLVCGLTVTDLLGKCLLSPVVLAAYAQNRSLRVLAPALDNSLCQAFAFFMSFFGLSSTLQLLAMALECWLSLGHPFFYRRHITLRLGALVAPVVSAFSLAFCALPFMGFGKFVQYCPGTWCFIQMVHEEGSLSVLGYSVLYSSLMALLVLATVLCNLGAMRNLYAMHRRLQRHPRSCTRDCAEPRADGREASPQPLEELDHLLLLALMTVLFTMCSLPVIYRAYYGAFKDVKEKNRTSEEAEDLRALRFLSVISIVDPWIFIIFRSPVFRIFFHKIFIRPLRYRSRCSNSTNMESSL
Method: as §1, §2, §3

[7] = molecular target: hEP1 (Homo sapiens (Human), UniProt P34995); experiment: FLIPR calcium signal, hEP1; type: cell-based; settings: HEK-293(EBNA) cells expressing hEP1
hEP1, sequence (P34995 whole entry): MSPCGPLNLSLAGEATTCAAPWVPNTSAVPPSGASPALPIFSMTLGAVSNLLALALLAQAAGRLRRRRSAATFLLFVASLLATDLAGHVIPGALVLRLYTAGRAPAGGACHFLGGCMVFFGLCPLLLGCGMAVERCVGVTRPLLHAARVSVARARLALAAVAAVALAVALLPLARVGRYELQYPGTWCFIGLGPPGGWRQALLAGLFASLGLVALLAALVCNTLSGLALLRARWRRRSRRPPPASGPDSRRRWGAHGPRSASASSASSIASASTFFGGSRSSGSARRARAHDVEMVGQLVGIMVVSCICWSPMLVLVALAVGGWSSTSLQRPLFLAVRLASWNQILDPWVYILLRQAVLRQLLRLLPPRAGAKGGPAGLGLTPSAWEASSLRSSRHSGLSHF
Method: as §1, §2, §3

[8] = molecular target: hEP3A (Homo sapiens (Human), UniProt P43115); experiment: FLIPR calcium signal, hEP3A; type: cell-based; settings: HEK-293(EBNA) cells expressing hEP3A/Gqi5
hEP3A, sequence (P43115 whole entry): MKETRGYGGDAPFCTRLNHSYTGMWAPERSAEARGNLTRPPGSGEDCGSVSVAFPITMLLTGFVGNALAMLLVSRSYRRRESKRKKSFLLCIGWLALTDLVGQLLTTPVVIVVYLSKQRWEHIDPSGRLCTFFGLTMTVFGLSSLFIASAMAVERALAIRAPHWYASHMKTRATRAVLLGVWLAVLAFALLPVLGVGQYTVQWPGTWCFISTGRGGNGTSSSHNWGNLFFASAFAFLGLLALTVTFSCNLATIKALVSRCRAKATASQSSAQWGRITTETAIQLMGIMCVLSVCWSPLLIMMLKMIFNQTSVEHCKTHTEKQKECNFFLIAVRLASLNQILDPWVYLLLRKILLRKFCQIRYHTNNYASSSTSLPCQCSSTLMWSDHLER
Method: as §1, §2, §3

[9] = molecular target: hFP (Homo sapiens (Human), UniProt P43088); experiment: FLIPR calcium signal, hFP; type: cell-based; settings: HEK-293(EBNA) cells expressing hFP
hFP, sequence (P43088 whole entry): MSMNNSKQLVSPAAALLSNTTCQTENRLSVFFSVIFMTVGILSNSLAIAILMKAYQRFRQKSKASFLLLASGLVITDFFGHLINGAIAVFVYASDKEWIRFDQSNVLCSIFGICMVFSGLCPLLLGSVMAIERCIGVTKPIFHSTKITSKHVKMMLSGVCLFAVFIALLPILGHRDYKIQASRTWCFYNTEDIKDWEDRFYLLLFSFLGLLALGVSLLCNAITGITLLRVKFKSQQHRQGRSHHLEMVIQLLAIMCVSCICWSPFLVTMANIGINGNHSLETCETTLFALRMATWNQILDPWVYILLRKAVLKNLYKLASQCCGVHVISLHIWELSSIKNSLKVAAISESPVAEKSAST
Method: as §1, §2, §3

T1 sequence (P35408 whole entry): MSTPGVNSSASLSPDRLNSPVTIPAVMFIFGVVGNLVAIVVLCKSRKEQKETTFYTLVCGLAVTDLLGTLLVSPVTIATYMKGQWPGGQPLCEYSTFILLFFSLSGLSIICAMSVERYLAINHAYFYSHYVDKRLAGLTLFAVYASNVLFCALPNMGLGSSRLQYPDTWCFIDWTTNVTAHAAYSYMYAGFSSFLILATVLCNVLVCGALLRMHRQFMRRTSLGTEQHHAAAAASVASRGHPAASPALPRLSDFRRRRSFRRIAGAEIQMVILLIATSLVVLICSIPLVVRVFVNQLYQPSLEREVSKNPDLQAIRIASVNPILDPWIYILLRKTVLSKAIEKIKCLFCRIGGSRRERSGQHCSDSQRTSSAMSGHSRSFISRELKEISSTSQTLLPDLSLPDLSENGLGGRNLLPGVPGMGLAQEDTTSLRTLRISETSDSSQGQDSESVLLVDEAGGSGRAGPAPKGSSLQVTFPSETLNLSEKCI

| EC50 [1] [nM] | Ki [2] [nM] | Ki [3] [nM] | EC50 [4] [nM] | EC50 against hTP [5] | EC50 against hDP [6] | EP2 Ki [2] [nM] | EC50 against hEP1 [7] | EC50 against hEP3A [8] | EC50 against hFP [9] | Structure (SMILES) |
| --- | --- | --- | --- | --- | --- | --- | --- | --- | --- | --- |
| 194 | 7490 | 1210 | 149 |  |  |  |  |  |  | O=C(O)c1ccc(CCCN2C(=O)CC[C@@H]2/C=C/C(O)c2cccc(Br)c2)cc1 (single isomer, unassigned) [Example 2] |
| 326 |  | 3320 |  | not active | not active | > 10000 | not active | not active | not active | Cc1cc(O)ccc1-c1cccc(C(O)/C=C/[C@H]2CCC(=O)N2CCCc2ccc(C(=O)O)cc2)c1 (single isomer, unassigned) [Example 9] |
| 3 |  | 25 |  | not active | not active | > 10000 | not active | not active | not active | Cc1cc(O)ccc1-c1cccc(C(O)/C=C/[C@H]2CCC(=O)N2CCCc2ccc(C(=O)O)cc2)c1 (single isomer, unassigned) [Example 10] |
| 134 |  | 582 |  |  |  | > 10000 |  |  |  | CC(C)c1cc(O)ccc1-c1cccc(C(O)/C=C/[C@H]2CCC(=O)N2CCCc2ccc(C(=O)O)cc2)c1 (stereo partly drawn) [Example 30, 4-[3-(2(R)-{(1E)-3-hydroxy-3-[4′-hydroxy-2′-(propan-2-yl)biphenyl-3-yl]prop-1-en-1-yl}-5-oxopyrrolidin-1-yl)propyl]benzoic acid] |
| 60 |  | 211 |  |  |  | > 10000 |  |  |  | CC(C)c1cc(O)ccc1-c1cccc(C(O)/C=C/[C@H]2CCC(=O)N2CCCc2ccc(C(=O)O)cc2)c1 (stereo partly drawn) [Example 31, 4-[3-(2(R)-{(1E)-3-hydroxy-3-[4′-hydroxy-2′-(propan-2-yl)biphenyl-3-yl]prop-1-en-1-yl}-5-oxopyrrolidin-1-yl)propyl]benzoic acid] |
| 118 |  | 536 |  |  |  | > 10000 |  |  |  | Cc1cc(Cl)ccc1-c1ccc(C(O)/C=C/[C@H]2CCC(=O)N2CCCc2ccc(C(=O)O)cc2)s1 (stereo partly drawn) [Example 33, 4-[3-(2(R)-{(1E)-3-[5-(4-chloro-2-methylphenyl)thiophen-2-yl]-3-hydroxyprop-1-en-1-yl}-5-oxopyrrolidin-1-yl)propyl]benzoic acid] |
